EC50, Emax and melting point data for 8 compounds are collected here from patent publication US9394285B2 (Pfizer Inc., priority 2013, dated 2016).

Data set [1] deals with human AMPK (full-length γ1, β1 and α1 subunits) (Homo sapiens (Human), UniProt Q13131+Q9Y478). Kind of data set: AMPK in vitro biochemical assay (33P-based, SAMS peptide, PP2A dephosphorylation). The note with it: for EC50: activation of phosphorylated AMPK, 33P-ATP, SAMS peptide, PP2A treatment, 4-parameter fit; for Emax: counts as % of positive control wells (enzyme, allosteric activator or AMP, PP2A and substrate), read-out: Maximum. In a few lines: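 Phosphorylated full-length α1β1γ1 AMPK (E. coli-expressed, His-purified, gel-filtered) preincubated 15 min RT with compound in HEPES pH 7.5, 10 mM MgCl2 buffer, then PP2A added to dephosphorylate pThr172.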
Sequence of human AMPK (full-length γ1, β1 and α1 subunits) (Q13131 whole entry): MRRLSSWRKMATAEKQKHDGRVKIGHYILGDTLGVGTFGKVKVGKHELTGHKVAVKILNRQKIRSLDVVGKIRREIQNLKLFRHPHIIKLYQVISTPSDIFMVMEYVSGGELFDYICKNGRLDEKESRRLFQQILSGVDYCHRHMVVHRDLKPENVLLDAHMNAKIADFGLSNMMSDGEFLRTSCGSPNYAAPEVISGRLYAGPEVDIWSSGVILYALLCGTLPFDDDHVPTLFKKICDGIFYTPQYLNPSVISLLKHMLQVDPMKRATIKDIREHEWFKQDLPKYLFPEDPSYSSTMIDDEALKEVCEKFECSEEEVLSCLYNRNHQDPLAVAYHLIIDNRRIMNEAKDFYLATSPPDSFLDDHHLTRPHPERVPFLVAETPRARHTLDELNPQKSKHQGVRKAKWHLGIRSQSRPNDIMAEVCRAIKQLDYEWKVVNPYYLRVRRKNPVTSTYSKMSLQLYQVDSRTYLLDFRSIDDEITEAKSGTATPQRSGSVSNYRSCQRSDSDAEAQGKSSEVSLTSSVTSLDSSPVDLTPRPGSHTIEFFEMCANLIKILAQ
Sequence of human AMPK (full-length γ1, β1 and α1 subunits) (Q9Y478 whole entry): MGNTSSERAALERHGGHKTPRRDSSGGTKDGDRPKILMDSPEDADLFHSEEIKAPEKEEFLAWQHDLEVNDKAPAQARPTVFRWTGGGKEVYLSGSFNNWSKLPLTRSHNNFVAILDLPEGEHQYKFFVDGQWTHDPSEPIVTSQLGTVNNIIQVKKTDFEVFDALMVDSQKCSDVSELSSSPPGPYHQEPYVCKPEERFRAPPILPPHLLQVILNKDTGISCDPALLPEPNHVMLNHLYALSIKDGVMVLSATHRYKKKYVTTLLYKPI
Sequence of human AMPK (full-length γ1, β1 and α1 subunits) (P54619 whole entry partner): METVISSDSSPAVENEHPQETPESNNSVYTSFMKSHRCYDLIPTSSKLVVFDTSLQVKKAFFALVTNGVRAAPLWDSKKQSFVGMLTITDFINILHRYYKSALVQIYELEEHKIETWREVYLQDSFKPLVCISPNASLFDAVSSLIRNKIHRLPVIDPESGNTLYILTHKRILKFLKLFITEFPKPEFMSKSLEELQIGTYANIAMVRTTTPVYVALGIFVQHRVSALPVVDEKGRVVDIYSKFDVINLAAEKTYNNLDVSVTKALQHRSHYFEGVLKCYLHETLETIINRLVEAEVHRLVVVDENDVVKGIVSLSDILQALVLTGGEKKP

For the compound `COc1ccc(-c2cc3c(S(=O)(=O)O)c[nH]c3cc2Cl)cc1` [Example 132, 6-Chloro-5-(4-methoxyphenyl)-1H-indole-3-sulfonic acid], the melting point is 240 °C (dec.). In data set [1], the EC50 came to 483 nM and the Emax came out at 46%.

As for `O=C(O)c1n[nH]c2cc(F)c(-c3ccc(C4CCOCC4)cc3)cc12` [Example 130, 6-Fluoro-5-(4-(tetrahydro-2H-pyran-4-yl)phenyl)-1H-indazole-3-carboxylic acid], the melting point was 295 °C. In data set [1], the EC50 is 305 nM and the Emax was 100%.

As for `N#Cc1cc2[nH]cc(C(=O)O)c2cc1-c1ccc(C2(CO)CC2)cc1` [Example 23, 6-cyano-5-{4-[1-(hydroxymethyl)cyclopropyl]phenyl}-1H-indole-3-carboxylic acid], the melting point was in the range of 270.9 to 271.6 °C. In addition, in data set [1], the EC50 was 16 nM and the Emax came out at 88%.

In the case of `O=C(O)c1c[nH]c2cc(F)c(-c3ccc(OCCO)cc3)c(F)c12` [Example 24, 4,6-difluoro-5-[4-(2-hydroxyethoxy)phenyl]-1H-indole-3-carboxylic acid], in data set [1], the midpoint of the response, the EC50, lay at 252 nM and the Emax turned out to be 91%.

Take `O=C(O)c1c[nH]c2cc(Cl)c(-c3ccc(OCCCO)cc3)cc12` [Example 30, 6-chloro-5-[4-(3-hydroxypropoxy)phenyl]-1H-indole-3-carboxylic acid]: the melting point was in the range of 209.3 to 209.6 °C. Also, in data set [1], the midpoint of the response, the EC50, lay at 30 nM and the Emax was found to be 92%.

As for `O=C(O)c1n[nH]c2cc(Cl)c(-c3ccc4c(c3)OCCO4)cc12` [Example 121, 6-Chloro-5-(2,3-dihydrobenzo[b][1,4]dioxin-6-yl)-1H-indazole-3-carboxylic acid], in data set [1], the half-maximal effective concentration (EC50) came out at 369 nM and the Emax was 102%.

Regarding `O=C(O)c1c[nH]c2cc(Cl)c(-c3ccc(OCCn4cccn4)cc3)cc12` [Example 180, 6-chloro-5-{4-[2-(1H-pyrazol-1-yl)ethoxy]phenyl}-1H-indole-3-carboxylic acid], in data set [1], the EC50 came to 11.6 nM and the Emax stood at 76.2%.

Take `CNC(=O)COc1ccc(-c2cc3c(C(=O)O)c[nH]c3cc2Cl)cc1` [Example 82, 6-chloro-5-{4-[2-(methylamino)-2-oxoethoxy]phenyl}-1H-indole-3-carboxylic acid]: in data set [1], a half-maximal effect (EC50) was put at 216 nM and the Emax was 86%.

By EC50 is commonly meant the concentration giving half of the maximal effect. A high value points to a need for much substance. Broadly, the melting point is the temperature, or range, at which the solid turns liquid.
